Here are results for eight compounds from ChEMBL document CHEMBL1201862, “PubChem BioAssay data set” (2004).

Test systems include CCRF-CEM; SK-MEL-2; HOP-62; SR; UO-31; NCI/ADR-RES; M14; Malme-3M; IGROV-1; TK-10; UACC-62; COLO 205; HT-29; PC-3; MOLT-4; KM12; HCT-15; A498; HCT-116; SNB-75.
Test in all cases: NCI-60 cell line screen, 48 h

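Compound exposure: 48 hours, 5 concentrations, 96-well plates. GI50: concentration for 50% inhibition of growth.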 Active and inactive are the calls of the source. No stated cut-off is given here; in the data, active = GI50 up to about 1.1 µM and inactive = higher.

Consider `COc1cc(C)c(S(=O)(=O)N(CCCN)OCCCN)c(C)c1C`, for which the GI50 in the assay on CCRF-CEM is 41.2 µM (inactive); in the assay on SK-MEL-2 it was 22.2 µM (inactive); in the assay with HOP-62, 61.7 µM (inactive); in the assay with SR, 17.6 µM (inactive); with UO-31 it was 41.5 µM (inactive); in the assay on NCI/ADR-RES it was > 100 µM (inactive). The GI50 was 23.6 µM (inactive) with M14; 21.9 µM (inactive) with Malme-3M; 20.2 µM (inactive) with IGROV-1; 34 µM (inactive) with TK-10; 48.1 µM (inactive) in the assay on UACC-62; 21 µM (inactive) in the assay with COLO 205. The GI50 with HT-29 is 46.5 µM (inactive); with PC-3, 25.4 µM (inactive); in the assay on MOLT-4, 13 µM (inactive); with KM12, 40.8 µM (inactive); in the assay with HCT-15, greater than 100 µM; in the assay with A498 it was 39.4 µM (inactive). The GI50 with HCT-116 is 29.6 µM (inactive); in the assay on SNB-75, 34.2 µM (inactive).
Consider `O=c1cc(NNc2ccccc2)[nH]c(=S)[nH]1`, for which the GI50 in the assay with CCRF-CEM is 29.8 µM (inactive); in the assay on SK-MEL-2 it was 16.6 µM (inactive); in the assay with HOP-62, > 100 µM (inactive); in the assay on SR, 22.5 µM (inactive); with UO-31, > 100 µM (inactive); in the assay on NCI/ADR-RES, 40.6 µM (inactive). Besides, the GI50 in the assay with M14 is 36.7 µM (inactive); with Malme-3M it was 37.7 µM (inactive); in the assay with IGROV-1 it was 79.4 µM (inactive); in the assay on TK-10 it was 24.9 µM (inactive); in the assay on UACC-62, 63.1 µM (inactive); in the assay with COLO 205 it was 49 µM (inactive). Also, the GI50 is 37.8 µM (inactive) in the assay with HT-29; > 100 µM (inactive) with PC-3; 35.2 µM (inactive) in the assay with MOLT-4; 27.5 µM (inactive) in the assay on KM12; 17.8 µM in the assay with HCT-15; > 100 µM (inactive) with A498. For the same compound, the GI50 with HCT-116 was 23.2 µM (inactive); with SNB-75, > 100 µM (inactive).
Regarding `CN1CCN(CC(=O)N2CCCn3c2nc2ccccc2c3=O)CC1`, the GI50 in the assay on CCRF-CEM, with SK-MEL-2, in the assay with HOP-62, in the assay with SR, with UO-31 and with NCI/ADR-RES was > 100 µM (inactive) each time. The GI50 in the assay on M14, in the assay with Malme-3M, in the assay with IGROV-1, in the assay with TK-10, in the assay on UACC-62 and in the assay with COLO 205 was > 100 µM (inactive) each time. In addition, the GI50 in the assay with HT-29 was > 100 µM (inactive); in the assay with PC-3 it was > 100 µM (inactive); with MOLT-4, > 100 µM (inactive); with KM12, > 100 µM (inactive); in the assay on HCT-15 it was greater than 100 µM; in the assay with A498 it was > 100 µM (inactive). The GI50 with HCT-116 and in the assay with SNB-75 was > 100 µM (inactive) throughout.
`Cc1nc2c(o1)C(=O)c1ccccc1/C2=N/C1CCCCC1N` (configuration not stated): the GI50 in the assay with CCRF-CEM was 0.247 µM (active); in the assay on SK-MEL-2, 0.867 µM (active); with HOP-62, 0.982 µM (active); in the assay with SR, 0.22 µM (active); in the assay on UO-31 it was 1.64 µM (inactive); in the assay with NCI/ADR-RES it was 0.288 µM (active). In addition, the GI50 in the assay with M14 is 0.425 µM (active); in the assay with Malme-3M it was 0.133 µM (active); in the assay with IGROV-1, 1.26 µM (inactive); with TK-10, 1.98 µM (inactive); in the assay on UACC-62, 0.169 µM (active); with COLO 205, 1.66 µM (inactive). The GI50 was 2.28 µM (inactive) in the assay on HT-29; 0.321 µM (active) in the assay with PC-3; 0.273 µM (active) with MOLT-4; 1.67 µM (inactive) with KM12; 0.547 µM in the assay with HCT-15; 1.73 µM (inactive) with A498. Also, the GI50 in the assay with HCT-116 is 0.259 µM (active); in the assay on SNB-75 it was 0.206 µM (active).
With `O=C1C=C(Nc2cccnc2)c2ccccc2C1=O`, the GI50 with CCRF-CEM was 15.2 µM (inactive); in the assay with SK-MEL-2 it was 7.23 µM (inactive); with HOP-62 it was 4.23 µM (inactive); with SR, 6.55 µM (inactive); in the assay with UO-31 it was 12 µM (inactive); in the assay with NCI/ADR-RES, 4.25 µM (inactive). For the same compound, the GI50 was 1.91 µM (inactive) in the assay with M14; 2.34 µM (inactive) in the assay with Malme-3M; 7.73 µM (inactive) in the assay on IGROV-1; 19.1 µM (inactive) in the assay with TK-10; 1.68 µM (inactive) in the assay on UACC-62; 21.6 µM (inactive) in the assay on COLO 205. The GI50 in the assay on HT-29 is 17 µM (inactive); with PC-3 it was 8.85 µM (inactive); with MOLT-4, 17.6 µM (inactive); with KM12 it was 4.03 µM (inactive); in the assay with HCT-15, 4.31 µM; in the assay with A498 it was 9.08 µM (inactive). For the same compound, the values for the GI50 in the assay on HCT-116 and with SNB-75 were 11.6 µM (inactive) and 1.51 µM (inactive), respectively.
As for `CC(C)=CCC[C@@H](C)c1c2nc3ccccc3[nH]c-2c(C)c(=O)c1O`, the GI50 was 0.27 µM (active) in the assay on CCRF-CEM; 1.59 µM (inactive) in the assay with SK-MEL-2; 1.19 µM (inactive) in the assay on HOP-62; 3.41 µM (inactive) with SR; 0.714 µM (active) in the assay with UO-31; 0.771 µM (active) in the assay with NCI/ADR-RES. Besides, the GI50 in the assay with M14 was 1.44 µM (inactive); in the assay on Malme-3M it was 1.58 µM (inactive); in the assay on IGROV-1 it was 2.07 µM (inactive); in the assay with TK-10 it was 2.58 µM (inactive); in the assay on UACC-62, 1.09 µM (active); in the assay on COLO 205 it was 5.65 µM (inactive). The GI50 in the assay with HT-29 was 5.32 µM (inactive); in the assay on PC-3 it was 3.32 µM (inactive); in the assay with MOLT-4 it was 1.44 µM (inactive); with KM12, 2.45 µM (inactive); with HCT-15, 0.236 µM; in the assay on A498, 2.12 µM (inactive). Besides, the GI50 in the assay with HCT-116 is 1.36 µM (inactive); in the assay on SNB-75, 1.71 µM (inactive).
Take `COC(=O)c1c2c(cc3c1CC1(Cc4ccccc4C1=O)C3)CCC2` (configuration not stated): the GI50 is 28.2 µM (inactive) with CCRF-CEM; 43.7 µM (inactive) with SK-MEL-2; 42.8 µM (inactive) in the assay with HOP-62; 15.6 µM (inactive) in the assay on SR; 13.9 µM (inactive) in the assay with UO-31; 19.8 µM (inactive) with NCI/ADR-RES. For the same compound, the GI50 in the assay with M14 was 31.3 µM (inactive); in the assay with Malme-3M, 20.3 µM (inactive); with IGROV-1, 26.6 µM (inactive); in the assay on TK-10, 51.3 µM (inactive); with COLO 205 it was 3.52 µM (inactive); in the assay with HT-29, 17.1 µM (inactive). For the same compound, the GI50 is 55.7 µM (inactive) in the assay with PC-3; 12.2 µM (inactive) in the assay with MOLT-4; 25.5 µM (inactive) in the assay on KM12; 21.4 µM in the assay with HCT-15; 22.4 µM (inactive) in the assay on A498; 26.6 µM (inactive) with HCT-116. In the assay with SNB-75, the GI50 was 19.4 µM (inactive).
Consider `CCO/C=N\c1c(C#N)c(-c2ccc(Cl)cc2)cn1-c1ccc(C)cc1`, for which the GI50 in the assay on CCRF-CEM is > 100 µM (inactive); in the assay on SK-MEL-2 it was > 100 µM (inactive); in the assay on HOP-62 it was > 100 µM (inactive); in the assay with SR it was 0.0272 µM (active); in the assay on UO-31, > 100 µM (inactive); in the assay with NCI/ADR-RES it was > 100 µM (inactive). The GI50 in the assay with M14, in the assay on Malme-3M, in the assay with IGROV-1, in the assay on TK-10, in the assay on UACC-62 and with COLO 205 was > 100 µM (inactive) in each case. Further, the GI50 is > 100 µM (inactive) in the assay with HT-29; > 100 µM (inactive) with PC-3; greater than 100 µM in the assay on HCT-15; > 100 µM (inactive) with A498; > 100 µM (inactive) in the assay with HCT-116; > 100 µM (inactive) in the assay on SNB-75.
